Source: PubChem BioAssay AID206 (DTP/NCI, 2004)
“And” between values parts separate entries of the source, which are not always exact repeats. Equal entries are not always repeated. Results filed as inconclusive are left out.

System: nude mice, HT29 intrarenal xenograft, tumor weight T/C
Assay: NCI In Vivo Anticancer Drug Screen. Data for tumor model HT29;CX-1 Human Adenocarcinoma (MER+) (intrarenal inoculation) in NU/NU Swiss (nude) mice
Details: endpoint: mean tumor weight change, higher = larger tumour
How it was run: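 Readout: treated/vehicle-control ratio of the measured endpoint (tumor size or survival) in transplanted-tumor mice.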

[1] = dose: 450.0 mg/kg/injection, schedule: Q04DX004 (sc), vehicle: saline with Tween-80
[2] = dose: 900.0 mg/kg/injection, schedule: Q04DX004 (sc), vehicle: saline with Tween-80
[3] = dose: 1800.0 mg/kg/injection, schedule: Q04DX004 (sc), vehicle: saline with Tween-80
[4] = dose: 75.0 mg/kg/injection, schedule: Q04DX004 (sc), vehicle: saline with Tween-80
[5] = dose: 150.0 mg/kg/injection, schedule: Q04DX004 (sc), vehicle: saline with Tween-80
[6] = dose: 300.0 mg/kg/injection, schedule: Q04DX004 (sc), vehicle: saline with Tween-80
[7] = dose: 600.0 mg/kg/injection, schedule: Q04DX004 (sc), vehicle: saline with Tween-80
[8] = dose: 50.0 mg/kg/injection, schedule: Q04DX004 (sc), vehicle: saline with Tween-80
[9] = dose: 100.0 mg/kg/injection, schedule: Q04DX004 (sc), vehicle: saline with Tween-80
[10] = dose: 200.0 mg/kg/injection, schedule: Q04DX004 (sc), vehicle: saline with Tween-80
[11] = dose: 1200.0 mg/kg/injection, schedule: Q04DX004 (sc), vehicle: saline with Tween-80
[12] = dose: 25.0 mg/kg/injection, schedule: Q04DX004 (sc), vehicle: saline with Tween-80
[13] = dose: 1.5 mg/kg/injection, schedule: Q04DX004 (sc), vehicle: Klucel (hydroxypropylcellulose) (HPC)
[14] = dose: 12.0 mg/kg/injection, schedule: Q04DX004 (sc), vehicle: Klucel (hydroxypropylcellulose) (HPC)

## CCCCCCCCCCCCCCCCCCCCCC(=O)Nc1ccn(C2OC(CO)C(O)C2O)c(=O)n1 (stereo not given)
dose: 225.0 mg/kg/injection, schedule: Q04DX004 (sc), vehicle: saline with Tween-80
  T/C: 65 % of control
[1]
  T/C: 88 % of control
[2]
  T/C: 64 % of control
[3]
  T/C: 72 % of control

## CN(C)P(=O)(Oc1ccccc1)N(C)C
[4]
  T/C: 183 % of control
[5]
  T/C: 122 % of control
[6]
  T/C: 62 % of control
[7]
  T/C: 40 % of control

## c1ccc([C@H]2CN3CCSC3=N2)cc1
dose: 15.0 mg/kg/injection, schedule: Q04DX004 (sc), vehicle: saline
  T/C: 152 % of control
dose: 30.0 mg/kg/injection, schedule: Q04DX004 (sc), vehicle: saline
  T/C: 114 % of control

## CC(=O)N(C)c1ccc(Nc2cc(C)[nH]c3ccc4ncnc4c23)cc1
[8]
  T/C: 95 % of control
[9]
  T/C: 68 % of control
[10]
  T/C: 79 % of control

## NC(=S)c1ncn(C2OC(CO)C(O)C2O)c1N (stereo not given)
dose: 150.0 mg/kg/injection, schedule: Q04DX004 (sc), vehicle: suspension in saline
  T/C: 95 % of control
dose: 300.0 mg/kg/injection, schedule: Q04DX004 (sc), vehicle: suspension in saline
  T/C: 120 % of control
dose: 600.0 mg/kg/injection, schedule: Q04DX004 (sc), vehicle: suspension in saline
  T/C: 102 % of control
dose: 1200.0 mg/kg/injection, schedule: Q04DX004 (sc), vehicle: suspension in saline
  T/C: 66 % of control

## Cc1ccc(NC(=O)Oc2ccc(Br)cc2Br)c([N+](=O)[O-])c1
[6]
  T/C: 35 % of control
[7]
  T/C: 52 % of control
[11]
  T/C: 69 % of control

## Cc1cc(NCCCCCCCNc2cc(C)nc3cc(N)ccc23)c2ccc(N)cc2n1
dose: 12.5 mg/kg/injection, schedule: Q04DX004 (sc), vehicle: saline with Tween-80
  T/C: 32 % of control
[12]
  T/C: 56 % of control
[8]
  T/C: 51 % of control

## COc1cc(C(=O)N/N=C/c2cccc([N+](=O)[O-])c2)cc(OC)c1OC
[5]
  T/C: 91 % of control
[7]
  T/C: 70 % of control
[11]
  T/C: 120 % of control

## CC(=O)OCC1OC(OC2=C(CC=C(C)C)C(=O)c3ccccc3C2=O)C(OC(C)=O)C(OC(C)=O)C1OC(C)=O (stereo not given)
dose: 100.0 mg/kg/injection, schedule: Q04DX004 (sc), vehicle: Klucel (hydroxypropylcellulose) (HPC)
  T/C: 159 % of control
dose: 200.0 mg/kg/injection, schedule: Q04DX004 (sc), vehicle: Klucel (hydroxypropylcellulose) (HPC)
  T/C: 105 % of control

## CCCNC1=C(C)C(=O)C2=C(C1=O)[C@H](COC(N)=O)[C@]1(OC)[C@@H]3N[C@@H]3CN21
dose: 6.0 mg/kg/injection, schedule: Q04DX003 (sc), vehicle: saline
  T/C: 78 % of control
dose: 12.0 mg/kg/injection, schedule: Q04DX003 (sc), vehicle: saline
  T/C: 1 % of control

## C[C@H](N)C(=O)N[C@@H]1[C@H]2C(=C(O)C[C@@H](O)[C@@H]2O)C(=O)O[C@]1(C)C(Cl)Cl
[13]
  T/C: 33 % of control

## COc1cccc2c1C(=O)c1c(O)c3c(c(O)c1C2=O)C[C@@](O)(C(C)=O)C[C@@H]3OC1CC(N)C(O)C(C)O1 (stereo not given in full)
dose: 1.0 mg/kg/injection, schedule: Q01DX010 (sc), vehicle: saline
  T/C: 159 % of control

## S=c1[nH]cc2cnccn12
[1]
  T/C: 97 % of control
[2]
  T/C: 107 % of control
[3]
  T/C: 117 % of control

## CN=C(N)N/N=C(\C)c1ccc2oc3ccc(/C(C)=N/NC(N)=NC)cc3c2c1
[4]
  T/C: 156 % of control
[5]
  T/C: 63 % of control
[6]
  T/C: 98 % of control

## O/N=C/c1ccccc1O.O/N=C/c1ccccc1O.[Cu]
[12]
  T/C: 76 % of control
[8]
  T/C: 39 % of control
[9]
  T/C: 43 % of control
[10]
  T/C: 61 % of control

## Cc1ccc2c(ccc(CC(=S)[S-])[n+]2C)c1
dose: 50.0 mg/kg/injection, schedule: Q01DX010 (sc), vehicle: Klucel (hydroxypropylcellulose) (HPC)
  T/C: 96 % of control
dose: 100.0 mg/kg/injection, schedule: Q01DX010 (sc), vehicle: Klucel (hydroxypropylcellulose) (HPC)
  T/C: 85 % of control
dose: 200.0 mg/kg/injection, schedule: Q01DX010 (sc), vehicle: Klucel (hydroxypropylcellulose) (HPC)
  T/C: 44 % of control
dose: 400.0 mg/kg/injection, schedule: Q01DX010 (sc), vehicle: Klucel (hydroxypropylcellulose) (HPC)
  T/C: 67 % of control

## O=C1CN(CN2CCOCC2)C(=O)CN1CN1CCOCC1
dose: 25.0 mg/kg/injection, schedule: Q01DX010 (sc), vehicle: suspension in saline
  T/C: 53 % of control
dose: 50.0 mg/kg/injection, schedule: Q01DX010 (sc), vehicle: suspension in saline
  T/C: 122 % of control
dose: 100.0 mg/kg/injection, schedule: Q01DX010 (sc), vehicle: suspension in saline
  T/C: 114 % of control
dose: 200.0 mg/kg/injection, schedule: Q01DX010 (sc), vehicle: suspension in saline
  T/C: 69 % of control

## COc1cc([C@@H]2c3cc4c(cc3[C@@H](OC3OC5COC(C)OC5C(O)C3O)[C@H]3COC(=O)[C@H]23)OCO4)cc(OC)c1O (stereo not given in full)
dose: 4.0 mg/kg/injection, schedule: Q01DX010 (sc), vehicle: saline
  T/C: 71 % of control
dose: 32.0 mg/kg/injection, schedule: Q01DX010 (sc), vehicle: saline
  T/C: 62 % of control

## O.O.[NH-]C1CCCCC1[NH-].[Pt+2] (stereo not given)
dose: 10.0 mg/kg/injection, schedule: Q01DX010 (sc), vehicle: saline
  T/C: 74 % of control
dose: 20.0 mg/kg/injection, schedule: Q01DX010 (sc), vehicle: saline
  T/C: 54 % of control

## CS(=O)(=O)c1ncc(Br)cn1
dose: 62.5 mg/kg/injection, schedule: Q04DX004 (sc), vehicle: saline
  T/C: 83 % of control
[4]
  T/C: 99 % of control
dose: 125.0 mg/kg/injection, schedule: Q04DX004 (sc), vehicle: saline
  T/C: 109 % of control
[5]
  T/C: 109 % of control
dose: 250.0 mg/kg/injection, schedule: Q04DX004 (sc), vehicle: saline
  T/C: 92 % of control
[6]
  T/C: 57 % of control
dose: 500.0 mg/kg/injection, schedule: Q04DX004 (sc), vehicle: saline
  T/C: 89 % of control

## CC1CC(C)CC(C)C(O)/C(C#N)=C/C=C/CC(C2CCCC2C(=O)O)OC(=O)CC(O)C(C)C1 (stereo not given)
[13]
  T/C: 87 % of control
dose: 3.0 mg/kg/injection, schedule: Q04DX004 (sc), vehicle: Klucel (hydroxypropylcellulose) (HPC)
  T/C: 76 % of control
dose: 6.0 mg/kg/injection, schedule: Q04DX004 (sc), vehicle: Klucel (hydroxypropylcellulose) (HPC)
  T/C: 40 % of control
[14]
  T/C: 69 % of control

## O=C1NC(=O)/C(=C/C=C/c2ccccc2)S1
[10]
  T/C: 76 % of control
dose: 400.0 mg/kg/injection, schedule: Q04DX004 (sc), vehicle: saline with Tween-80
  T/C: 68 % of control
dose: 800.0 mg/kg/injection, schedule: Q04DX004 (sc), vehicle: saline with Tween-80
  T/C: 94 % of control
dose: 1600.0 mg/kg/injection, schedule: Q04DX004 (sc), vehicle: saline with Tween-80
  T/C: 83 % of control

## COC1CC(C)C(OC)c2cc(O)cc(c2O)NC(=O)/C(C)=C/C=C\C(C)C(OC(N)=O)/C(C)=C\C(C)C1OC (stereo not given)
dose: 50.0 mg/kg/injection, schedule: Q04DX004 (sc), vehicle: saline + alcohol
  T/C: 113 % of control

## NC(Cc1ccc(N(CCCl)CCCl)cc1)C(=O)O (stereo not given)
dose: 5.0 mg/kg/injection, schedule: Q04DX004 (sc), vehicle: Klucel (hydroxypropylcellulose) (HPC)
  T/C: 70 % of control
dose: 10.0 mg/kg/injection, schedule: Q04DX004 (sc), vehicle: Klucel (hydroxypropylcellulose) (HPC)
  T/C: 36 % of control and 53 % of control
dose: 20.0 mg/kg/injection, schedule: Q04DX004 (sc), vehicle: Klucel (hydroxypropylcellulose) (HPC)
  T/C: -16 % of control

## O=C([CH-]C(=O)C(F)(F)F)c1ccccc1.O=C([CH-]C(=O)C(F)(F)F)c1ccccc1.O=C([CH-]C(=O)C(F)(F)F)c1ccccc1.O=C([CH-]C(=O)C(F)(F)F)c1ccccc1.[Eu+3].c1ccncc1
dose: 800.0 mg/kg/injection, schedule: Q01DX010 (sc), vehicle: Klucel (hydroxypropylcellulose) (HPC)
  T/C: 10 % of control and 20 % of control (2×)

## CC1OC1C(=O)C1(O)C(C)C(O)C23OC2(C(O)c2c(O)cccc2C3=O)C1O (stereo not given)
[14]
  T/C: 172 % of control
dose: 24.0 mg/kg/injection, schedule: Q04DX004 (sc), vehicle: Klucel (hydroxypropylcellulose) (HPC)
  T/C: 99 % of control
dose: 48.0 mg/kg/injection, schedule: Q04DX004 (sc), vehicle: Klucel (hydroxypropylcellulose) (HPC)
  T/C: 92 % of control

## NC(=S)c1cn(C2OC(CO)C(O)C2O)c2ncnc(N)c12 (stereo not given)
dose: 6.25 mg/kg/injection, schedule: Q04DX004 (sc), vehicle: suspension in saline
  T/C: 62 % of control
dose: 12.5 mg/kg/injection, schedule: Q04DX004 (sc), vehicle: suspension in saline
  T/C: 79 % of control

## COC1N(C2CC(O)C(CO)O2)C(=O)NC(=O)C1(F)Br (stereo not given)
dose: 25.0 mg/kg/injection, schedule: Q01DX010 (sc), vehicle: saline
  T/C: 28 % of control
